According to US7045283B2, “Methods of high-throughput screening for internalizing antibodies” (The Regents of the University of California, priority 2000, dated 2006):
Converted amounts (≈) assume the structure as drawn.

Assays:
[1] = in vitro; settings: BEND-3 endothelial cells expressing VEGF receptor
Description: Bovine endothelial cells (BEND-3) expressing vascular endothelial growth factor (VEGF) receptor were incubated (37° C., 6 hours) in the growth medium containing 0.03–90 microgram/mL of the free (i.e. non-encapsulated) vinorelbine, or vinorelbine encapsulated in the Ni-NTA-PEG-DSPE liposomes with or without 0.02 mg/niL of the intemalizing anti-VEGER scFv antibody 4G7 having a hexahistidine tag and a terminal cysteine group. The cells were post-incubated in the growth medium without the drug for another 72 hours, and the viability of the cells was determined by a conventional tetrasolium (MTT) assay.

[2] = Methotrexate encapsulation by reverse phase evaporation (direct sequestration) and leakage; format: physicochemical

Row | Compound | IC50 at 6 h [1] [µg/mL] | MTX loading efficiency [2]
1 | CCC1=C[C@@H]2CN(C1)Cc1c([nH]c3ccccc13)[C@@](C(=O)OC)(c1cc3c(cc1OC)N(C)[C@H]1[C@@](O)(C(=O)OC)[C@H](OC(C)=O)[C@]4(CC)C=CCN5CC[C@]31[C@@H]54)C2 [free vinorelbine, vinorelbine] | 0.67 (≈ 0.86 µM) | 
2 | CN(Cc1cnc2nc(N)nc(N)c2n1)c1ccc(C(=O)N[C@@H](CCC(=O)O)C(=O)O)cc1 [free methotrexate, methotrexate] | > 90 | 28.7–29.5%
